Results as given in patent US5610299A (priority 1995, dated 1997).

Test system: GABA binding site / benzodiazepine binding site
Assay: not given
Details: Tallman et al. 1978; cited from earlier work

| Compound | block of enhancement of benzodiazepine binding by GABA agonists |
| --- | --- |
| CN1CCc2cc3c(cc2C1C1OC(=O)c2c1ccc1c2OCO1)OCO3 (single isomer, unassigned; (+)) [(+) bicuculline] | blocked |
| CN1CCc2cc3c(cc2C1C1OC(=O)c2c1ccc1c2OCO1)OCO3 (single isomer, unassigned; (-)) [(-) bicuculline] | much less active |

Biological target: GABAa receptor
Assay: GABAa receptor binding activity ([3H]-RO15-1788 displacement, rat cortical tissue)
Details: 0.5 nM [3H]-RO15-1788, 30 min at 4° C., nonspecific with 1.0 μM diazepam
Method: The pharmaceutical utility of compounds of this invention are indicated by the following assay for GABAa receptor binding activity.
Assays are carried out as described in Thomas and Tallman (J. Bio. Chem. 156:9838-9842, J. Neurosci. 3:433-440, 1983). Rat conical tissue is dissected and homogenized in 25 volumes (w/v) of 0.05M Tris HCl buffer (pH 7.4 at 4° C.). The tissue homogenate is centrifuged in the cold (4°) at 20,000×g for 20'. The supernatant is decanted and the pellet is rehomogenized in the same volume of buffer and again centrifuged at 20,000×g. The supernatant is decanted and the pellet is frozen at -20° C. overnight. The pellet is then thawed and rehomogenized in 25 volume (original wt/vol) of buffer and the procedure is carried out twice. The pellet is finally resuspended in 50 volumes (w/vol of 0.05M Tris HCl buffer (pH 7.4 at […]).
Incubations contain 100 μl of tissue homogenate, 100 μl of radioligand 0.5 nM (^3 H-RO15 -1788 [^3 H-Flumazenil] specific activity 80 Ci/mmol), drug or blocker and buffer to a total volume of 500 μl. Incubations are carried for 30 min at 4° C. then are rapidly filtered through GFB filters to separate free and bound ligand. Filters are washed twice with fresh 0.05M Tris HCl buffer (pH 7.4 at 4° C.) and counted in a liquid scintillation counter. 1.0 μM diazepam is added to some tubes to determine nonspecific binding. Data are collected in triplicate determinations, averaged and % inhibition of total specific binding is calculated. Total Specific Binding=Total-Nonspecific. In sonic cases, the amounts of unlabeled drugs is varied and total displacement curves of binding are carried out. Data are converted to a form for the calculation of IC50 and Hill Coefficient (nH).

| Compound | IC50 [nM] |
| --- | --- |
| COc1ccc(-c2ncc3[nH]c4ccccc4n3c2=O)cc1 [Compound 1, 2-(4-Methoxyphenyl)-benzimidazo[1,2-a]pyrazin-1(5H)-one] | 15 |
| COc1ccc(F)c(-c2ncc3[nH]c4ccccc4n3c2=O)c1 [Compound 2, 2-(2-Fluoro-5-methoxyphenyl)-benzimidazo[1,2-a]pyrazin-1(5H)-one] | 167 |
| O=c1c(-c2ccccc2)ncc2[nH]c3ccccc3n12 [Compound 3, 2-Phenyl-benzimidazo[1,2-a]pyrazin-1(5H)-one] | 93 |
| COc1cccc(-c2ncc3[nH]c4ccccc4n3c2=O)c1 [Compound 4] | 61 |
